Assay results: PMC10056899, “Neuroprotective and Antiherpetic Properties of Polyphenolic Compounds from Maackia amurensis Heartwood” (Molecules, 2023)
“And” between values parts separate entries of the source, which are not always exact repeats. Identical values can stand only once. Like-named read-outs stand apart in the source and are kept apart here.

Assays:
[1] = system: PQ-treated Neuro-2a cells; test: Intracellular ROS level in PQ-treated cells (H2DCF-DA); format: cell-based, murine; settings: 10 μM, PQ 1 mM
Method: After 24 h of adhesion, Neuro-2a cells (1 × 10^4 cells/well) were incubated with stilbenes (0.01–10 µM) for 1 h. After that, we added PQ (1 mM) to each well and incubated the cells for 3 h. To study ROS formation, we added 20 µL of 2,7-dichlorodihydrofluorescein diacetate solution ([…], H2DCF-DA, Molecular Probes, Eugene, OR, USA) to each well, so that the concentration was 10 µM, and kept the microplate in a CO2–incubator for additional 30 min at 37 °C.

HSV-1 = test: Anti-HSV-1 activity, cytopathic effect (CPE) inhibition assay in Vero cells; format: cell-based, HSV-1 strain L2; settings: for IC50: read-out: IC50 (CPE assay); for SI = CC50/IC50: Vero cells, HSV-1
Method: The HSV-1 strain L2 and Vero cell culture (kidney epithelial cells of the African green monkey Chlorocebus sp.) were obtained from the N.F. Gamaleya Federal Research Centre for Epidemiology and Microbiology (Moscow, Russia). HSV-1 was grown in Vero cells, using Dulbecco′s Modified Eagle′s Medium (DMEM, Biolot, St. Petersburg, Russia) supplemented with 10% fetal bovine serum (FBS, Biolot, St. Petersburg, Russia) and 100 U/mL of gentamycin (Dalkhimpharm, Khabarovsk, Russia), at 37 °C in a CO2 incubator. In the maintenance medium, the FBS concentration was decreased to 1%.
The tested compounds were dissolved in DMSO (Sigma, St. Louis, MO, USA) at a concentration 10 mg/mL and stored at −20 °C. For cytotoxicity and anti-HSV-1 activity determination, the stock solutions were diluted with DMEM so that the final concentration of DMSO was 0.5%.
The anti-HSV-1 activity of stilbenes was evaluated using cytopathic effect (CPE) inhibition assay in Vero cells. We infected the monolayer of cells grown in 96-well plates (1 × 10^4 cells/well) with 100 µL/well of virus suspension (100 TCD50/mL) and we simultaneously treated it with stilbenes 1–6 (100 µL/well) at various concentrations (from 1 to 400 μg/mL) for one hour at 37 ◦C. After virus absorption, we removed the mixture of virus and stilbenes, washed the cells, and added the maintenance medium with 1% FBS. […] We used MTT assay to evaluate the antiviral activity of stilbenes. The viral inhibition rate (IR, %) was calculated according to Equation (3):(3) IR, %=Atv−Acv/Acd−Acv×100, where: • Atv is the absorbance of cells infected with virus and treated with a polyphenolic compound; • Acv is the absorbance of the untreated virus-infected cells; • Acd is the absorbance of control (untreated and non-infected) cells.
The selectivity index (SI) was calculated as the ratio of CC50 to IC50. Experiments were repeated three times.

[2] = system: PQ-treated Neuro-2a cells; test: Mitochondrial membrane potential in PQ-treated cells (TMRM); format: cell-based, murine; settings: 10 μM
Method: […] Then, we added PQ (500 μM) and kept the cell suspension in a CO2-incubator for 1 h. Cells incubated without PQ and stilbenes and with PQ only were used as positive and negative control, respectively. We added the tetramethylrhodamine methyl (TMRM) (Sigma-Aldrich, St. Louis, MO, USA) solution (500 nM) to each well and kept the cells for 30 min in a CO2-incubator at 37 °C. The intensity of fluorescence was measured with a PHERAstar […] reader (BMG Labtech, Ortenberg, Germany) at λex = 540 nm and λem = 590 nm. We processed the data by MARS Data Analysis v. 3.01R2 (BMG Labtech, Ortenberg, Germany) and presented the results as percentages of the positive control value.

COc1ccc([C@@H]2COc3cc(O)ccc3[C@H]2c2c(O)cc(O)cc2/C=C/c2ccc(O)c(O)c2)c(O)c1 [Compound 1]
Reduction of intracellular ROS level in PQ-treated cells [1]: 17%
IC50 (HSV-1; Human alphaherpesvirus 1, Vero): 14 µg/mL and 27.2 µM
SI = CC50/IC50 (HSV-1): 11.6 ± 1.3

Oc1ccc(/C=C/c2cc(O)cc3c2[C@H](c2cc(O)cc(O)c2)[C@@H](c2ccc(O)c(O)c2)O3)cc1 [Compound 4, scirpusin A]
Increase of mitochondrial membrane potential compared to PQ-treated cells [2]: 26%
Reduction of intracellular ROS level in PQ-treated cells [1]: 7%
IC50 (HSV-1; Human alphaherpesvirus 1, added to Vero cells simultaneously with the virus, 100 TCD50/mL): 13.8 µg/mL and 29.4 µM
SI = CC50/IC50 (HSV-1): 14.4 ± 1.7
